Measured values taken from US8975234B2, “Anti-bacterial infection, inflammation, and leukemia composition and use thereof” (priority 2011, dated 2015).

What was measured:
[1] = test system: Staphylococcus aureus biofilm formation; test: Biofilm formation; type: cell-based; details: 40 μg/mL Tellimagrandin II
Method: Bacteria was grown overnight (16˜18 hours) on agar plate. Then, collected and re-suspended in 0.45% sterile PBS and diluted in sterile PBS to final optical density at 600 nm (OD600) of 0.1. Polystyrene 96-well microtitre plates were filled with 150 μL of culture medium and 20 μL of bacterial solution per well. The cultures were allowed to stand at 37° C. for 18 hours. After the incubation period, cultures were removed, and microtitre plate wells were gently washed three times with 300 μL of sterile PBS to remove loosely associated bacteria, then dried at 60° C. oven for 1 hour. Samples were stained by the addition of the 2% dye solution (150 μL) to each well above the initial inoculation level and incubated for 15 minutes. The plate was then washed in fresh water. The intensity of staining was measured after the addition of 95% alcohol (150 μL) to each dry well. The samples were incubated at room temperature for 30 min, after which the OD517 values were measured on a plate reader.
Optical density cut-off value (ODc)=average OD of negative control+3× standard deviation (SD) of negative control (The interpretation of biofilm production was done according to the criteria of Srdjan et al. (APMIS 115: 891-9, 2007). MRSA 17199 were used as control strain.

[2] = test system: human erythromyeloblastoid leukemia K-562 cell; test: Cell viability WST-1 assay; type: cell-based
Method: Quantitative cell viability assessed using WST-1 assay. WST-1 is a reagent which produces a highly water soluble formazan upon metabolically active cells, allowing a direct colorimetric measurement of cell viability.
The K-562 cells were plated in a 96-well culture plate at a seeding density of 6,000 cells/well (100 μL) and incubated at 37° C. with 5% CO2 for 16˜18 hours. Cells were treated with 20 μL Tellimagrandin II to make the final concentrations of 0, 20, 40, 60 and 80 μM, and incubated at 37° C. with 5% CO2 for 24 and 48 hours. Cells without Tellimagrandin II treatment used as a control. Added 12 μL of WST-1 reagent (10:1) to each well of the plate and mixed well, then incubated at 37° C. in a 5% CO2 incubator for 2 hours. After incubation, the absorbance at 450 nm (test wavelength) and 630 nm (reference wavelength) were measured. Data was calculated by subtracting the 630 nm background absorbance from the 450 nm measurement.

[3] = test system: penicillin-binding protein 2a (PBP2a); test: Western blotting analysis of PBP2a expression; type: cell-based, Staphylococcus aureus; details: 40 μg/mL alone
Method: Protein samples (15 μg) were mixed with 5× Sample buffer and boiled in 1× Sample buffer for 5 min and then cooled quickly that proteins be denatured to their constituent polypeptide chains. Equal amounts of protein (15 μg) were separated on 10% SDS-PAGE at 17 mA for 2 hours, and transferred to PVDF membrane using wet transfer procedure. The PVDF membrane was blocked for half hour at room temperature in t-BST buffer containing 5% (w/v) non-fat dry milk to prevent nonspecific binding then probed with primary antibodies (Rabbit-anti-penicillin binding protein, dilution 1:5000) in 5% non-fat dry milk for 16˜18 hours at 4° C. Anti-Groel was used as internal controls (dilution 1:80,000; purchased from Sigma). After washing with t-BST three times for 5 minutes each, the membrane was incubated for half hour at room temperature with horseradish peroxidase (HRP)-conjugated secondary antibodies in 5% (w/v) non-fat dry milk. The membrane was washed three times for 5 minutes each, followed by using an enhanced chemiluminescence system and exposed to film.

K-562 cells = test: Apoptosis detection test (TUNEL); type: cell-based, human; details: 30 μM, 48 hours
Method: TUNEL test was used to detect any DNA fragmentation to determine if cell enters apoptosis process.
A total of 10 mL cell solution at the concentration of 1×10^6K-562 cells per mL was cultured with 10 cm cell culture dishes in an incubator supplied with 5% CO2 at 37° C. for 30 minutes so that cells could adapt to the environment. Tellimagrandin II solutions of different concentrations were added by order so that the final concentrations are 0, 10, 20, 30, 40 and 50 μM respectively. The solution was placed in incubator with 5% CO2 at 37° C. for 48 hours before being centrifuged at 3,500 rpm at 4° C. for 5 minutes. After removing the supernatant, the cells were rinsed by PBS once. A total of 1 mL 1% Trioxane (diluted from 10% Trioxane solution with PBS) was added and the solution was left to react at room temperature for 30 minutes to one hour. Then, the solution was centrifuged at 3,500 rpm at 4° C. for 5 minutes. After removing the supernatant, 70% ethanol was added and the solution was placed at −20° C. for 16-18 hours for cell fixation.
After cell fixation, the solution was centrifuged at 400 rpm at 4° C. for 10 minutes before removing the supernatant. […] Finally, 1 mL PBS was used to resuspend the cells before BD FACS can was used to detect the fluorescent signal and the quantitative results are in FIG. 15. […]

bacteria = test: Transmission electron microscopy of treated bacteria; type: cell-based; details: 40 μg/mL; cultured for 10 minutes; compared with control group
Method: Before observed by TEM, the bacteria were cultured overnight on plate, collected and suspended in either 10 mL MHB or 10 mL MHB containing 40 μg/mL Tellimagrandin II. The bacterial solution were diluted to an optical density at 600 nm (OD600) of 0.1, and cultured for 10 minutes or 24 hours. Then, the cells were centrifuged at 10,000 rpm/min and suspended in the fixing fluid, the fixed time can not exceed 24 hours. The sample for TEM was sent to departments of Laboratory Medicine and Clinical Research, Kaohsiung Medical University Hospital (Kaohsiung, Taiwan, ROC).

O=C(OC1O[C@@H]2COC(=O)c3cc(O)c(O)c(O)c3-c3c(cc(O)c(O)c3O)C(=O)O[C@H]2[C@H](OC(=O)c2cc(O)c(O)c(O)c2)[C@H]1OC(=O)c1cc(O)c(O)c(O)c1)c1cc(O)c(O)c(O)c1 (some centres unmarked) [Tellimagrandin II]
OD (average OD value of the strain − ODc) ([1]; ODc 0.167): 0.039
Average OD value ([1]; biofilm staining of strain): 0.206
Absorbance 1 ([1]; biofilm staining of strain, replicate 1): 0.153
Absorbance 2 ([1]; biofilm staining of strain, replicate 2): 0.259
Absorbance 3 ([1]; biofilm staining of strain, replicate 3): 0.167
Absorbance 4 ([1]; biofilm staining of strain, replicate 4): 0.246
IC50 ([2]; K562, 24 hr): 57 µM
IC50 ([2]; K562, 48 hr): 48.1 µM
expression of penicillin-binding protein 2a (PBP2a) [3]: inhibit the expression
DNA fragmentation, TUNEL fluorescent signal (K-562 cells): fluorescent signals were detected
phenotype of bacteria in electron microscopy (bacteria): unsmooth tooth surfaces
